In PMC3843672, “Resistance to Degradation and Cellular Distribution are Important Features for the Antitumor Activity of Gomesin” (PLoS ONE, 2013):
Where a SMILES comes first, the peptide text is derived from it. [ ]: non-standard residue; d: D form. d(pGlu) = O=C1CC[C@H](C(=O)O)N1; pGlu = O=C1CC[C@@H](C(=O)O)N1

What was measured:
[1] = tested on: B16 F10 mouse melanoma cell line; format: cell-based; conditions: 24 h
Experimental: B16 F10 mouse melanoma cell line was cultured in RPMI medium supplemented with 10% fetal bovine serum (FBS; Gibco, USA), 10 U/ml penicillin and 10 µg/ml streptomycin. Cells were cultured in a humidified incubator containing 2.5% CO2 at 37°C.
B16 cells were incubated in 96-well microtiter plates in RPMI medium supplemented with 10% FBS until reach the semi-confluence and then treated with different concentrations of Gm and its analogues for 24 h. To investigate the mechanisms of Gm-induced cell death, B-16 cells were also pre-incubated with 40 µM cytochalasin D (Tocris, USA); 20 µM necrostatin-1 (Tocris, USA), 10 µM Z-VAD (Tocris, USA), 5 mM MβCD (Tocris, USA), and 100 µM chloroquine (Tocris, USA) for 1 h. Cell viability was determined using the standard reduction of the tetrazolium salt 3-(4,5-dimethylthiazol-2-yl)-2,5-diphenyltetrazolium bromide (MTT). The results were expressed relative to control cell viability (100%).

B16 cells = experiment: Peptide internalized into cells, biotinylated peptides, flow cytometry; format: cell-based, mouse; conditions: for internal presence of peptide after 24 h: 2 µM biotinylated peptides; for Max. Internal Fluorescence: biotinylated peptides used, 2 µM, B16 cells, streptavidin-Alexa 647 (FL4) after fixation and saponin permeabilization, maximum over time course, mean ± SEM, three independent experiments
Experimental: Cells were treated with the 2 µM biotinylated peptide. Then, the melanoma cells (5×10^5 for flow cytometry or 5×10^3 cell seeded for confocal microscopy) were labeled with streptavidin-Alexa 488 (Invitrogen, USA) for 30 min at 4°C and washed with PBS. The cells were fixed with a solution of 2% paraformaldehyde for 30 min, washed with 0.1 M glycin, and permeabilized with 0.01% saponin. Then, the cells were labeled with streptavidin-Alexa 647 (Invitrogen, USA). For flow cytometry, the cells were extracted using PBS with 5 mM EDTA previously to fixation. The quantification of label of external biotynilated peptide, and intracellular peptide were performed by flow cytometry or confocal microscopy. For flow cytometry the cells were excited using argon laser (488 nm), and diode laser (633 nm). The emission was collected in FL-1 and FL-4 channel. A total of 10,000 events were collected per sample. For confocal microscopy, nuclei were stained with DAPI. Confocal microscopy analyses were performed with a confocal laser scanning microscope equipped with a Plan-Apochromat ×63 objective under oil immersion (Zeiss, LSM780). The pinhole device was adjusted to capture fluorescence of one airy unit. The images correspond to single focal plane. Streptavidin-Alexa Fluor 488 were excited using an argon laser (λEx. = 488 nm, λEm. = 505–550 nm), streptavidin-Alexa Fluor 647 was excited using a HeNe laser (λEx. = 633 nm, λEm. = 640–710 nm) and DAPI was excited using a multiphoton laser (Coherent) (λEx. = 750 nm, λEm. = 380–460 nm). Unviable cells were excluded with propidium iodide (PI) label.
We quantified the Gm and analogues binding to the cellular membrane, and their internalization using their biotinylated counterpart. […] Unviable cells were excluded by PI label (Figure S2). External peptides labeled with streptavidin Alexa Fluor 488 were identified for the quantification of the green fluorescence (FL1 channel), and internal peptides labeled with streptavidin Alexa Fluor 647 were identified for the quantification of the deep red fluorescence (FL4 channel), after permeabilization of cellular membrane, by Flow cytometry. […] On the other hand, the peptides that present lower cytotoxicity were not retained after 24 h (Figure 3A-F). However, a direct relation between binding, peptide entrance, and cytotoxicity effect was not full observed, the entrance into cells seem to be important to the action of several AMPs. To verify the participation of the entry of peptide with cytotoxicity cholesterol level cholesterol level was reduced incubating the cells with MβCD for 1 h, which increase the membrane fluidity. As expected, the treatment of the cells with MβCD increases the entry of peptide (Figure 3G) and increases the cytotoxicity of the peptides, except the analogue [Thr^2,6,11,15]-Gm (Figure 3H).

[2] = Resistance to degradation by lysosomal enzymes (LC/ESI-MS); format: in vitro ADME; conditions: 37°C; for resistance to lysosomal enzyme degradation (in words): sonicated cells, pH 5 Tris buffer, different times, LC/ESI-MS (Figure 2B); for Peptide Degradation: sonicated cultured cells in pH 5 Tris buffer (lysosomal enzymes), incubation 1–14 h, starting peptide concentration 10^−4 M taken as 100%, LC/ESI-MS, mean ± SEM
Experimental: The cultured cells were resuspended using pH 5 Tris buffer, and then sonicated. Protein concentration was measured using the RC DC protein assay kit (Bio-Rad, CA, USA) according to the manufacturer’s instructions. The peptides were incubated with this protein solution for 1–14 h, and its stability was evaluated by reversed-phase liquid chromatography coupled with an electrospray ionization mass spectrometer (LC/ESI-MS).
Figure 2 Lysosomal enzymes participate in the cytotoxic reduction activities of the Gm analogues. (A, C and D) Cell viability was assessed by the MTT reduction test. (A) Cells were incubated with cytoskeletal inhibitor (cytochalasin D), and lysosomal inhibitor (chloroquine) for 1 h before to stimulation by Gm, and its analogues for 24 h. Chloroquine potentiated the cytotoxicity of peptides. (B) Since chloroquine was able to potentiate the cytotoxicity of the peptides, resistance to degradation of lysosomal enzymes was evaluated by LC/ESI-MS. Peptides were incubated at 37°C for different times. (C) Cells were incubated with the IC50 concentration for each peptide. Cytotoxic activities after 24 and 72 h of the peptide incubation were compared.

SMILES | IC50 [1] [µM] | internal presence of peptide after 24 h (B16 cells) | Max. Internal Fluorescence (B16 cells) [AU] | resistance to lysosomal enzyme degradation (in words) [2] | Peptide Degradation [2] [%] | fold less potent than Gm ([1]; B16 cells, MTT, ratio of potencies) [fold]
CC(C)C[C@@H](NC(=O)[C@@H](CCCNC(=N)N)NC(=O)[C@@H](CCCNC(=N)N)NC(=O)[C@H](NC(=O)[C@H]1CCC(=O)N1)[C@H](C)O)C(=O)N[C@@H](C(=O)N[C@H](Cc1ccc(O)cc1)C(=O)N[C@H](CCCCN)C(=O)N1CCC[C@H]1C(=O)N[C@H](CCCNC(=N)N)C(=O)N[C@@H](C(=O)N[C@@H](C(=O)N[C@@H](C(=O)N[C@H](Cc1ccc(O)cc1)C(=O)N[C@@H](C(=O)N[C@H](CCCNC(=N)N)C(=O)NCC(=O)N[C@H](CCCNC(=N)N)C(N)=O)[C@H](C)O)[C@H](C)O)C(C)C)[C@H](C)O)[C@H](C)O [[D-Thr^2,6,11,15, Pro^9]-D-Gm] ([d(pGlu)][dT][dR][dR][dL][dT][dY][dK]P[dR][dT][dV][dT][dY][dT][dR]G[dR]-NH2) | 75 | internal presence | 2751±190 | little affected by lysosomal enzymes | 15±2 | 
CC(C)C[C@@H](NC(=O)[C@@H](CCCNC(=N)N)NC(=O)[C@@H](CCCNC(=N)N)NC(=O)[C@H](NC(=O)[C@H]1CCC(=O)N1)[C@H](C)O)C(=O)N[C@@H](C(=O)N[C@H](Cc1ccc(O)cc1)C(=O)N[C@H](CCCCN)C(=O)N[C@H](CCC(N)=O)C(=O)N[C@H](CCCNC(=N)N)C(=O)N[C@@H](C(=O)N[C@@H](C(=O)N[C@@H](C(=O)N[C@H](Cc1ccc(O)cc1)C(=O)N[C@@H](C(=O)N[C@H](CCCNC(=N)N)C(=O)NCC(=O)N[C@H](CCCNC(=N)N)C(N)=O)[C@H](C)O)[C@H](C)O)C(C)C)[C@H](C)O)[C@H](C)O [[D-Thr^2,6,11,15]-D-Gm] ([d(pGlu)][dT][dR][dR][dL][dT][dY][dK][dQ][dR][dT][dV][dT][dY][dT][dR]G[dR]-NH2) | 25 | internal presence | 602±12 | little affected by lysosomal enzymes | 12±2 | 3.5
CC(C)C[C@H](NC(=O)[C@H](CCCNC(=N)N)NC(=O)[C@H](CCCNC(=N)N)NC(=O)[C@H](CO)NC(=O)[C@@H]1CCC(=O)N1)C(=O)N[C@@H](CO)C(=O)N[C@@H](Cc1ccc(O)cc1)C(=O)N[C@@H](CCCCN)C(=O)N[C@@H](CCC(N)=O)C(=O)N[C@@H](CCCNC(=N)N)C(=O)N[C@@H](CO)C(=O)N[C@H](C(=O)N[C@H](C(=O)N[C@@H](Cc1ccc(O)cc1)C(=O)N[C@@H](CO)C(=O)N[C@@H](CCCNC(=N)N)C(=O)NCC(=O)N[C@@H](CCCNC(=N)N)C(N)=O)[C@@H](C)O)C(C)C [[Ser^2,6,11,15]-Gm] ([pGlu]SRRLSYKQRSVTYSRGR-NH2) | > 200 |  | 305±65 | most sensitive peptides to degradation | 47±5 | 
CC(C)C[C@H](NC(=O)[C@H](CCCNC(=N)N)NC(=O)[C@H](CCCNC(=N)N)NC(=O)[C@@H](NC(=O)[C@@H]1CCC(=O)N1)[C@@H](C)O)C(=O)N[C@H](C(=O)N[C@@H](Cc1ccc(O)cc1)C(=O)N[C@@H](CCCCN)C(=O)N1CCC[C@@H]1C(=O)N[C@@H](CCCNC(=N)N)C(=O)N[C@H](C(=O)N[C@H](C(=O)N[C@H](C(=O)N[C@@H](Cc1ccc(O)cc1)C(=O)N[C@H](C(=O)N[C@@H](CCCNC(=N)N)C(=O)NCC(=O)N[C@@H](CCCNC(=N)N)C(N)=O)[C@@H](C)O)[C@@H](C)O)C(C)C)[C@@H](C)O)[C@@H](C)O [[Thr^2,6,11,15, D-Pro^9]-Gm] ([pGlu]TRRLTYK[dP]RTVTYTRGR-NH2) | 90 | internal presence | 1165±27 | stable to enzymatic degradation | 16±1 | 
CC(C)C[C@H](NC(=O)[C@H](CCCNC(=N)N)NC(=O)[C@H](CCCNC(=N)N)NC(=O)[C@@H](NC(=O)[C@@H]1CCC(=O)N1)[C@@H](C)O)C(=O)N[C@H](C(=O)N[C@@H](Cc1ccc(O)cc1)C(=O)N[C@@H](CCCCN)C(=O)N[C@@H](CCC(N)=O)C(=O)N[C@@H](CCCNC(=N)N)C(=O)N[C@H](C(=O)N[C@H](C(=O)N[C@H](C(=O)N[C@@H](Cc1ccc(O)cc1)C(=O)N[C@H](C(=O)N[C@@H](CCCNC(=N)N)C(=O)NCC(=O)N[C@@H](CCCNC(=N)N)C(N)=O)[C@@H](C)O)[C@@H](C)O)C(C)C)[C@@H](C)O)[C@@H](C)O [[Thr^2,6,11,15]-Gm] ([pGlu]TRRLTYKQRTVTYTRGR-NH2) | > 200 |  | 753±175 | most sensitive peptides to degradation | 43±4 | 
